These results are taken from patent US8303907B2, “Biosensors, and method and kits for using same” (priority 2002, dated 2012).

Test [1] has as its target T1, PSII (Thermosynechococcus vestitus, UniProt P0A444). The conditions noted are these: PSII Clark electrode (amperometry), Koblizek (2002); cited from earlier work.
Test [2] concerns the target T1, PSII. The conditions noted are these: cited from earlier work.
In test [3] the test system is Chemically immobilised thylakoids. The conditions noted are these: chemically immobilised thylakoids (electrochemistry), Laberge (1999); cited from earlier work.
The subject of test [4] is Physically immobilised thylakoids. As to conditions: physically immobilised thylakoids (electrochemistry), Laberge (2000); cited from earlier work.
Test [5] has as its system stabilised thylakoid membranes. Nature of the test: Inhibition of photosynthetic efficiency of stabilised thylakoid membranes measured by fluorescence (F2-F1)/F2. Format: biochemical, spinach. The source says:
In a specific embodiment, a fluorometer continuously illuminates weakly the photosynthetic biological material with a light emitting diode (LED) emitting light at a wavelength of 475 or at 660 nm. Better results were obtained with the 475 nm wavelength. In order to obtain a higher sensitivity for measuring the photosynthetic response to toxic molecules, the intensity of the low excitation light was adjusted so as to obtain a F1 fluorescence level slightly higher than F0.
Fluorescence measured 2 sec after turning on one LED is F1. Three additional LEDs are then turned on so as to induce actinic illumination F2. Dispersion of LEDs is illustrated in FIG. 1. Light beams are oriented so as to form together a point of convergence precisely at the level where the photodiode is read. After a specific time, selected according to the nature of the thylakoid membranes used (eg. source of thylakoids, etc.) (Table 1), of the background noise and of the level of sensitivity sought, the F2 fluorescence is measured. To determine F1 and F2, the fluorometer measures wavelengths higher than 650 nm when the illumination is at 475 nm, and higher than 700 nm when illumination is at 660 nm.
The photosynthetic efficiency is determined with the following formula (F2−F1)/F2. Preferably, the photosynthetic efficiency of the stabilised thylakoids is 0.8±0.1. Any molecule affecting the photosystems modifies either F1 or F2 which modification necessarily disrupts (increases or decreases) the photosynthetic efficiency. The inhibition curve of a particular molecule is determined by calculating the activity of the photosystems in the absence of the molecule and in the presence of the molecule and comparing both efficiency as follows as described in Conrad 1993:
Without inhibitor (wi): efficiency(wi)=(F2(wi)−F1(wi))/F2(wi) With inhibitor: Relative photosynthetic efficiency(sample)=(F2(sample)−F1(sample))/F2(wi) Percentage efficiency: efficiency (%)=(efficiency(sample)×100)/efficiency(wi) Percentage inhibition: Inhibition (%)=100−efficiency (%)
The individual test tubes (100 μL lyophilised thylakoid membranes) were resuspended in 2 mL of water or tested samples. The concentrated batch of test tubes was resuspended in water, in Buffer 1 (HEPES-NaOH 50 mM pH 7.5 buffer containing sucrose 330 mM, MgCl2 20 mM, NH4Cl 10 mM, PEG 4000 4% (p/v)); or in Buffer 2 (phosphate buffer 0.1 M pH 6.5 containing sucrose 330 mM, NH4Cl 10 mM, MgCl2 20 mM, EDTA 10 mM, PEG 4000 4% (p/v)). A combination of buffered solutions 1 and 2 may also be used. […] These different buffers rs produce different results in the detection sensitivity (see Table 3 above). The final volume obtained depends on the quantity of lyophilised membranes used (2.5 mL for 25 tests, 5 mL for 50 tests).
Before use, the tubes containing stabilised thylakoid membranes were retrieved from storage. If they were stored in the freezer or the refrigerator, they were tempered 30 minutes at room temperature and in the dark. Two milliliters of fluid samples and the required volume of MgCl2 mother solution to get 0-10 mM MgCl2 (depending on tested samples) were added to 100 μL of the thylakoids membranes formulation at a concentration of 5 μg/mL. The tubes are then shook by inversion for 2 min. […]

Test [6] concerns algaes native. As to conditions: algaes native (fluorescence), Jay (1997); cited from earlier work.
Test [7] has as its system algaes native. The conditions noted are these: algaes native (fluorescence), Conrad (1993); cited from earlier work.
Setting [8] is: Buffer 1 + 5 mM MgCl2 (in cuvette).
Setting [9] is: membranes resuspended in Buffer 1.
[10] abbreviates: membranes resuspended in Buffer 2.
The mark [11] stands for this setting: stabilised thylakoid membranes of the present invention (fluorescence).

Values after ≈ are worked out from the molar mass of the structure shown. Where two headings read alike, the source gives them in different places. Bounds are passed on as bounds.

In the case of `CCNc1nc(Cl)nc(NC(C)C)n1` [Atrazine], the half-inhibitory concentration (IC50) at PSII [1] was 301 µM; on PSII [2], 88.1 µM; in test [3] it was 330 µg/mL (≈ 1530 µM); in test [4], 280 µg/mL (≈ 1300 µM); in test [5] (setting [8]), 0.04 µg/mL; in test [5] (setting [9]) it was 0.13 µg/mL. The IC50 in test [5] (setting [10]) was 0.33 µg/mL; in test [5] (setting [11]), 40 µg/mL; with algaes native [6] it was 62 µg/mL (≈ 287 µM); in the test on algaes native [7] it was 150 µg/mL (≈ 695 µM). The Threshold was 0.0004 mg/L at PSII [1]; 0.01 to 0.05 mg/L in test [3]; 0.001 mg/L in test [5] (setting [8]); 0.002 mg/L in test [5] (setting [9]); 0.002 mg/L in test [5] (setting [10]); 0.001 mg/L in test [5] (setting [11]). Moreover, in the test with algaes native [6], the Threshold is recorded as 0.009 mg/L. The “Inhibition (%)” value turned out to be 23% in test [5] (Biological apple juice, atrazine 0.01 μg/mL); 61% in test [5] (Biological apple juice, atrazine 0.1 μg/mL); 71% in test [5] (Biological apple juice, atrazine 4 μg/mL); 15% in test [5] (Commercial apple juice (clear), pH 7, gravimetric filtration, atrazine 0.01 μg/mL); 60% in test [5] (Commercial apple juice (clear), pH 7, gravimetric filtration, atrazine 0.1 μg/mL); 74% in test [5] (Commercial apple juice (clear), pH 7, gravimetric filtration, atrazine 4 μg/mL). Besides, the “Inhibition (%)” value in test [5] (Commercial apple juice (with pulp), pH 7, gravimetric filtration, atrazine 0.01 μg/mL) turned out to be 23%; in test [5] (Commercial apple juice (with pulp), pH 7, gravimetric filtration, atrazine 0.1 μg/mL), 58%; in test [5] (Commercial apple juice (with pulp), pH 7, gravimetric filtration, atrazine 4 μg/mL), 65%; in test [5] (Commercial apple juice, pH adjusted at 7, atrazine 0.01 μg/mL), 11%; in test [5] (Commercial apple juice, pH adjusted at 7, atrazine 0.1 μg/mL), 61%; in test [5] (Commercial apple juice, pH adjusted at 7, atrazine 4 μg/mL), 84%. For the same compound, the “Inhibition (%)” value was 16% in test [5] (Water, atrazine 0.01 μg/mL); 60% in test [5] (Water, atrazine 0.1 μg/mL); 80% in test [5] (Water, atrazine 4 μg/mL). For the same compound, the “% effect” value in test [5] (atrazine 0.001 mg/L) was 4.2%; in test [5] (atrazine 0.004 mg/L), 14.9%; in test [5] (atrazine 0.04 mg/L), 55.3%; in test [5] (atrazine 0.1 mg/L), 69.4%. In addition, the calculated inhibition in test [5] (sample with initial concentration of 4 mg/L of atrazine) is given as 64.8%. In addition, the detection threshold in test [5] (some of the thylakoid membranes preparations) is reported as 1 ppb.

For the compound `CC(C)N1C(=O)c2ccccc2NS1(=O)=O` [Bentazon], the IC50 in test [5] (setting [8]), in test [5] (setting [9]) and in test [5] (setting [10]) was over 4 µg/mL each time. In addition, the Threshold in test [5] (setting [8]) is over 4 mg/L; in test [5] (setting [9]) it was 2 mg/L; in test [5] (setting [10]) it was 1.22 mg/L.

For the compound `N#Cc1cc(Br)c(O)c(Br)c1` [Bromoxynil], the values for the IC50 in test [5] (setting [8]), in test [5] (setting [9]) and in test [5] (setting [10]) were over 0.1 µg/mL, 0.443 µg/mL and 0.414 µg/mL, respectively. Moreover, the Threshold in test [5] (setting [8]) is on record as over 0.1 mg/L; in test [5] (setting [9]), 0.013 mg/L; in test [5] (setting [10]), 0.06 mg/L.

As to `O=C([O-])[O-].[Ca+2]` [CaCO3], in test [5], the “Effect (inhibition or stimulation) on thylakoid membranes” value (shortened to “Effect (inhibition or stimulation)”) is reported as “Stimulation”.

For `CCNc1nc(Cl)nc(NC(C)(C)C#N)n1` [Cyanazine], the IC50 in test [3] was 79 µg/mL (≈ 328 µM); in test [4], 310 µg/mL (≈ 1290 µM); in test [5] (setting [8]), 0.028 µg/mL; in test [5] (setting [9]), 0.009 µg/mL; in test [5] (setting [10]), 0.135 µg/mL; in test [5] (setting [11]), 40 µg/mL. Further, the Threshold in test [5] (setting [8]) was 0.0006 mg/L; in test [5] (setting [9]), 0.002 mg/L; in test [5] (setting [10]), 0.013 mg/L.

On to `CCNc1nc(N)nc(Cl)n1` [Deisopropyl atrazine], for which the results for the IC50 in test [5] (setting [8]), in test [5] (setting [9]) and in test [5] (setting [10]) were over 0.1 µg/mL, over 1 µg/mL and over 4 µg/mL, respectively. For the same compound, the figures for the Threshold in test [5] (setting [8]), in test [5] (setting [9]) and in test [5] (setting [10]) were over 0.1 mg/L, 0.2 mg/L and 1.26 mg/L, respectively.

Regarding `CC(C)Nc1nc(N)nc(Cl)n1` [Desethyl atrazine], the IC50 in test [5] (setting [8]) came to 1.1 µg/mL; in test [5] (setting [9]), 1.08 µg/mL; in test [5] (setting [10]) it was 2.31 µg/mL. Also, the Threshold amounted to 0.2 mg/L in test [5] (setting [8]), 0.013 mg/L in test [5] (setting [9]) and 0.2 mg/L in test [5] (setting [10]).

On to `OO` [H2O2], for which, in test [5], the “Effect (inhibition or stimulation)” value is recorded as “Inhibition”.

As to `[Hg+2]` [Hg], the 50% inhibitory concentration (IC50) in test [5] (incubation time 15 min) turned out to be 2.5 µg/mL; in test [5] (incubation time 30 min), 2.0 µg/mL; in test [5] (incubation time 60 min), 2.0 µg/mL. The Threshold limit value is 0.7 mg/L in test [5] (incubation time 15 min), 0.35 mg/L in test [5] (incubation time 30 min) and 0.35 mg/L in test [5] (incubation time 60 min).

For the compound `[Cl-].[Na+]` [NaCl], the “Effect (inhibition or stimulation)” value in test [5] is listed as “Stimulation”.

`[Ni+2]` [Ni]: the IC50 in test [5] (incubation time 15 min), in test [5] (incubation time 30 min) and in test [5] (incubation time 60 min) was over 100 µg/mL in each case. Also, the Threshold limit value in test [5] (incubation time 15 min) is reported as 35 mg/L; in test [5] (incubation time 30 min) it was 7.1 mg/L; in test [5] (incubation time 60 min), 7.1 mg/L.

In the case of `CCCCCCCC/C=C\CCCCCCCC(=O)O` [Oleic acid], the “Effect (inhibition or stimulation)” value in test [5] is “Inhibition”.

On to `CCC(=O)Nc1ccc(Cl)c(Cl)c1` [Propanil], for which the IC50 in test [5] (setting [8]) is 0.068 µg/mL; in test [5] (setting [9]) it was 0.179 µg/mL; in test [5] (setting [10]) it was 0.221 µg/mL. The Threshold in test [5] (setting [8]) was 0.0006 mg/L; in test [5] (setting [9]), 0.002 mg/L; in test [5] (setting [10]), 0.013 mg/L.

On to `CCNc1nc(Cl)nc(NCC)n1` [Simazine], for which, in test [5] (setting [8]), the IC50 came to 0.942 µg/mL and the Threshold came out at 0.06 mg/L. Further, in test [5] (setting [9]), the IC50 came out at 0.028 µg/mL and the Threshold was 0.002 mg/L.

Regarding `CCCCCCCCCCCCCCCCCC(=O)O` [Stearic acid], the “Effect (inhibition or stimulation)” value in test [5] is “Stimulation”.

With `[Zn+2]` [Zn], the IC50 in test [5] (incubation time 15 min) was over 100 µg/mL; in test [5] (incubation time 30 min), 70 µg/mL; in test [5] (incubation time 60 min) it was 34 µg/mL. Further, the Threshold limit value in test [5] (incubation time 15 min) amounted to 16 mg/L; in test [5] (incubation time 30 min), 16 mg/L; in test [5] (incubation time 60 min), 7.1 mg/L.

On to Ammoniacal nitrogen, for which the “Effect (inhibition or stimulation)” value in test [5] is “Stimulation”.

Nitrates: in test [5], the “Effect (inhibition or stimulation)” value is on record as “Weak inhibition”.

As for Phosphates, the “Effect (inhibition or stimulation)” value in test [5] is on record as “Stimulation”.

A word on the IC50: it is the concentration that gives 50% inhibition.
